In patent US12257050B2, “Calibration free in-vivo measurement of analytes using electrochemical sensors” (THE REGENTS OF THE UNIVERSITY OF CALIFORNIA, priority 2017, dated 2025):

Conditions: rat, in vivo, iv, 30 mg/kg
Source text: The drift-resistance of chronoamperometrically-interrogated E-AB sensors is sufficient to support continuous, real-time measurements directly in situ in the blood of live animals. Aminoglycoside-binding E-AB were fabricated sensors on 75 μm-diameter gold micro-wires, encased in 22-gauge catheters for structural support, and deployed directly in the jugular veins of live rats (FIG. 6A). The plasma pharmacokinetics of the antibiotic tobramycin were monitored following an intravenous administration of 30 mg/kg by performing continuous chronoamperometric measurements for a total of two hours (FIG. 6B). Continuous measurements were achieved by pulsing the potential of the E-AB sensors serially between −0.1 V and −0.3 V, holding each pulse with a duration of only 100 ms. Then, non-linear regression analysis was performed of the current transients generated at −0.3 V to extract current decay lifetimes in real time, and these lifetimes were converted to concentration using the previously determined Langmuir isotherm (FIG. 6C). […]
The sub-second time resolution of chronoamperometrically interrogated E-AB sensors measurement of drug pharmacokinetics with unprecedented precision. The distribution, α, and elimination, β, lifetimes of tobramycin were determined by fitting the in vivo data to a two-compartment pharmacokinetic model. […]

- distribution lifetime α (first-order time constant of drug distribution): 3.74 ± 0.04 min
- elimination lifetime β (elimination time constant): 69 ± 2 min
SMILES: NC[C@H]1O[C@H](O[C@H]2[C@H](O)[C@@H](O[C@H]3O[C@H](CO)[C@@H](O)[C@H](N)[C@H]3O)[C@H](N)C[C@@H]2N)[C@H](N)C[C@@H]1O [tobramycin]
